Data published in patent publication US20180251431A1 (VERTEX PHARMACEUTICALS INCORPORATED, priority 2016, published 2018).

System: HEK293 cells
Assay: HEK293 VLCFA-LPC IC50 determination (13C-labeled C26:0 LPC by UHPLC/MS)
Assay type: cell-based, human
Conditions: Homo sapiens, HEK293, 48 h, average of one or more replicates; 13C-labeled C26:0 LPC, 48 hours; read-out: Average HEK293 IC50
Outline: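 Suspension HEK293 cells (final 0.5 million/mL after mixing with equal volume) incubated 48 hours with compound plus 13C-acetate (1.0 mg/mL in added media), shaking at 37° C. Lipids extracted with hexane/isopropanol or methanol, C13:0 LPC standard. UHPLC/MS of 13C-labeled C26:0 LPC (638.500/104.100 m/z); IC50 by four-parameter fit.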

| SMILES | IC50 [µM] |
| --- | --- |
| O=C(Nc1ccn(-c2ccc(O)c(F)c2)n1)C1(c2ccccc2F)CC1 [Compound 355, N-[1-(3-fluoro-4-hydroxy-phenyl)pyrazol-3-yl]-1-(2-fluorophenyl)cyclopropanecarboxamide] | 1.7 |
| O=C(Nc1ccn(-c2cnnc(O)c2)n1)C1(c2ccccc2F)CC1 [Compound 356, 1-(2-fluorophenyl)-N-[1-(6-hydroxypyridazin-4-yl)pyrazol-3-yl]cyclopropanecarboxamide] | > 5 |
| O=C(Nc1ccn(-c2cc(F)c(O)c(F)c2)n1)C1(c2ccccc2F)CC1 [Compound 357, N-[1-(3,5-difluoro-4-hydroxy-phenyl)pyrazol-3-yl]-1-(2-fluorophenyl)cyclopropanecarboxamide] | > 5 |
| COc1cc(-n2ccc(NC(=O)C3(c4ccccc4F)CC3)n2)ncn1 [Compound 358, 1-(2-fluorophenyl)-N-(1-(6-methoxypyrimidin-4-yl)-1H-pyrazol-3-yl)cyclopropane-1-carboxamide] | > 5 |
| COc1cc(-n2ccc(NC(=O)C3(c4ccccc4F)CC3)n2)nc(C)n1 [Compound 359, 1-(2-fluorophenyl)-N-[1-(6-methoxy-2-methyl-pyrimidin-4-yl)pyrazol-3-yl]cyclopropanecarboxamide] | > 5 |
| Cc1cncnc1-n1ccc(NC(=O)C2(c3ccccc3F)CC2)n1 [Compound 360, 1-(2-fluorophenyl)-N-[1-(5-methylpyrimidin-4-yl)pyrazol-3-yl]cyclopropanecarboxamide] | 0.069 |
| O=C(Nc1ccn(-c2ncncc2F)n1)C1(c2ccccc2F)CC1 [Compound 361, 1-(2-fluorophenyl)-N-[1-(5-fluoropyrimidin-4-yl)pyrazol-3-yl]cyclopropanecarboxamide] | 0.15 |
| CN(C(=O)Cc1ccccc1F)c1ccn(-c2ccccc2)n1 [Compound 362, 2-(2-fluorophenyl)-N-methyl-N-(1-phenyl-1H-pyrazol-3-yl)acetamide] | > 5 |
| CN(C(=O)C1(c2ccccc2F)CC1)c1ccn(-c2ccnc(F)c2)n1 [Compound 363, 1-(2-fluorophenyl)-N-(1-(2-fluoropyridin-4-yl)-1H-pyrazol-3-yl)-N-methylcyclopropane-1-carboxamide] | > 5 |
| O=C(Nc1nn(-c2ccnc(F)c2)cc1F)C1(c2ccccc2F)CC1 [Compound 365, N-(4-fluoro-1-(2-fluoropyridin-4-yl)-1H-pyrazol-3-yl)-1-(2-fluorophenyl)cyclopropane-1-carboxamide] | 0.41 |
| Cc1cn(-c2ccccc2)nc1NC(=O)C1(c2cccc(F)c2)CCC1 [Compound 372, 1-(3-fluorophenyl)-N-(4-methyl-1-phenyl-pyrazol-3-yl)cyclobutanecarboxamide] | 3.7 |
| Cc1ccccc1C1(C(=O)Nc2ccn(-c3ccncc3)n2)CC1 [Compound 373, 1-(o-tolyl)-N-[1-(4-pyridyl)pyrazol-3-yl]cyclopropanecarboxamide] | 0.14 |
| Cc1csc(-n2ccc(NC(=O)C3(c4ccccc4F)CC3)n2)n1 [Compound 374, 1-(2-fluorophenyl)-N-(1-(4-methylthiazol-2-yl)-1H-pyrazol-3-yl)cyclopropane-1-carboxamide] | 0.47 |
| O=C(Nc1ccn(-c2ncco2)n1)C1(c2ccccc2F)CC1 [Compound 375, 1-(2-fluorophenyl)-N-(1-oxazol-2-ylpyrazol-3-yl)cyclopropanecarboxamide] | 0.5 |
| Cc1cc(-n2ccc(NC(=O)C3(c4ccccc4F)CC3)n2)cnc1F [Compound 376, N-[1-(6-fluoro-5-methyl-3-pyridyl)pyrazol-3-yl]-1-(2-fluorophenyl)cyclopropanecarboxamide] | 0.065 |
| O=C(Nc1ccn(-c2ccc(F)nc2)n1)C1(c2ccccc2F)CC1 [Compound 377, 1-(2-fluorophenyl)-N-[1-(6-fluoro-3-pyridyl)pyrazol-3-yl]cyclopropanecarboxamide] | 0.023 |
| COc1ncc(-n2ccc(NC(=O)C3(c4ccccc4F)CC3)n2)cc1Cl [Compound 378, N-(1-(5-chloro-6-methoxypyridin-3-yl)-1H-pyrazol-3-yl)-1-(2-fluorophenyl)cyclopropane-1-carboxamide] | 0.12 |
| O=C(Nc1ccn(-c2cnc(Cl)c(Cl)c2)n1)C1(c2ccccc2F)CC1 [Compound 379, N-[1-(5,6-dichloro-3-pyridyl)pyrazol-3-yl]-1-(2-fluorophenyl)cyclopropanecarboxamide] | 0.12 |
| O=C(Nc1ccn(-c2cnc(C(F)(F)F)nc2)n1)C1(c2ccccc2F)CC1 [Compound 381, 1-(2-fluorophenyl)-N-[1-[2-(trifluoromethyl)pyrimidin-5-yl]pyrazol-3-yl]cyclopropanecarboxamide] | > 5 |
| CC(C)(O)c1ncc(-n2ccc(NC(=O)C3(c4ccccc4F)CC3)n2)cn1 [Compound 382, 1-(2-fluorophenyl)-N-[1-[2-(1-hydroxy-1-methyl-ethyl)pyrimidin-5-yl]pyrazol-3-yl]cyclopropanecarboxamide] | > 5 |
| CC(C)(C)c1ncc(-n2ccc(NC(=O)C3(c4ccccc4F)CC3)n2)cn1 [Compound 383, N-[1-(2-tert-butylpyrimidin-5-yl)pyrazol-3-yl]-1-(2-fluorophenyl)cyclopropanecarboxamide] | > 5 |
| Nc1c(F)cc(-n2ccc(NC(=O)C3(c4ccccc4F)CC3)n2)cc1F [Compound 384, N-[1-(4-amino-3,5-difluoro-phenyl)pyrazol-3-yl]-1-(2-fluorophenyl)cyclopropanecarboxamide] | 0.98 |
| Nc1cc(-n2ccc(NC(=O)C3(c4ccccc4F)CC3)n2)ccc1F [Compound 385, N-[1-(3-amino-4-fluoro-phenyl)pyrazol-3-yl]-1-(2-fluorophenyl)cyclopropanecarboxamide] | 1.4 |
| Nc1ccc(-n2ccc(NC(=O)C3(c4ccccc4F)CC3)n2)cc1F [Compound 387, N-[1-(4-amino-3-fluoro-phenyl)pyrazol-3-yl]-1-(2-fluorophenyl)cyclopropanecarboxamide] | 1.1 |
| O=C(Nc1ccn(-c2cnns2)n1)C1(c2ccccc2F)CC1 [Compound 388, 1-(2-fluorophenyl)-N-[1-(thiadiazol-5-yl)pyrazol-3-yl]cyclopropanecarboxamide] | 0.037 |
| O=C(Nc1ccn(-c2ncc(F)cc2F)n1)C1(c2ccccc2F)CC1 [Compound 391, N-(1-(3,5-difluoropyridin-2-yl)-1H-pyrazol-3-yl)-1-(2-fluorophenyl)cyclopropane-1-carboxamide] | 0.19 |
| O=C(Nc1ccn(-c2ccc(Cl)cn2)n1)C1(c2ccccc2F)CC1 [Compound 398, N-(1-(5-chloropyridin-2-yl)-1H-pyrazol-3-yl)-1-(2-fluorophenyl)cyclopropane-1-carboxamide] | > 5 |
| Cc1cc(-n2ccc(NC(=O)C3(c4ccccc4F)CC3)n2)sn1 [Compound 401, 1-(2-fluorophenyl)-N-[1-(3-methylisothiazol-5-yl)pyrazol-3-yl]cyclopropanecarboxamide] | 2.3 |
| O=C(Nc1ccn(-c2ccsn2)n1)C1(c2ccccc2F)CC1 [Compound 402, 1-(2-fluorophenyl)-N-(1-isothiazol-3-ylpyrazol-3-yl)cyclopropanecarboxamide] | 0.06 |

Same assay, conditions: Homo sapiens, HEK293, HEK293 cells; average of one or more replicates; read-out: Average HEK293 IC50

| SMILES | IC50 [µM] |
| --- | --- |
| Cc1cc(NC(=O)C2(c3ccccc3F)CC2)nn1-c1ccccc1 [Compound 386, 1-(2-fluorophenyl)-N-(5-methyl-1-phenyl-1H-pyrazol-3-yl)cyclopropane-1-carboxamide] | > 5 |
| COc1ccccc1C1(C(=O)Nc2ccn(-c3ccnc(F)c3)n2)CC1 [Compound 389, N-[1-(2-fluoro-4-pyridyl)pyrazol-3-yl]-1-(2-methoxyphenyl)cyclopropanecarboxamide] | > 5 |
| Cn1cnc(-n2ccc(NC(=O)C3(c4ccccc4F)CC3)n2)c1 [Compound 392, 1-(2-fluorophenyl)-N-(1-(1-methyl-1H-imidazol-4-yl)-1H-pyrazol-3-yl)cyclopropane-1-carboxamide] | > 5 |
| Nc1cc(-n2ccc(NC(=O)C3(c4ccccc4F)CC3)n2)ccn1 [Compound 393, N-[1-(2-amino-4-pyridyl)pyrazol-3-yl]-1-(2-fluorophenyl)cyclopropanecarboxamide] | 1.9 |
| CN(C)c1ccc(-n2ccc(NC(=O)C3(c4ccccc4F)CC3)n2)cn1 [Compound 394, N-[1-[6-(dimethylamino)-3-pyridyl]pyrazol-3-yl]-1-(2-fluorophenyl)cyclopropanecarboxamide] | > 5 |
| O=C(Nc1ccn(-c2ccnc(OC(F)F)c2)n1)C1(c2ccccc2F)CC1 [Compound 395, N-(1-(2-(difluoromethoxy)pyridin-4-yl)-1H-pyrazol-3-yl)-1-(2-fluorophenyl)cyclopropane-1-carboxamide] | > 5 |
| O=C(Nc1ccn(-c2ccnc(C(F)F)c2)n1)C1(c2ccccc2F)CC1 [Compound 396, N-[1-[2-(difluoromethyl)-4-pyridyl]pyrazol-3-yl]-1-(2-fluorophenyl)cyclopropanecarboxamide] | > 5 |
| O=C(Nc1ccn(-c2ccc(C(F)F)nc2)n1)C1(c2ccccc2F)CC1 [Compound 397, N-[1-[6-(difluoromethyl)-3-pyridyl]pyrazol-3-yl]-1-(2-fluorophenyl)cyclopropanecarboxamide] | > 5 |
| Nc1ncc(-n2ccc(NC(=O)C3(c4ccccc4F)CC3)n2)cc1F [Compound 399, N-[1-(6-amino-5-fluoro-3-pyridyl)pyrazol-3-yl]-1-(2-fluorophenyl)cyclopropanecarboxamide] | 0.28 |
| Cn1cc(-n2ccc(NC(=O)C3(c4ccccc4F)CC3)n2)nn1 [Compound 400, 1-(2-fluorophenyl)-N-(1-(1-methyl-1H-1,2,3-triazol-4-yl)-1H-pyrazol-3-yl)cyclopropane-1-carboxamide] | > 5 |
